Data: patent publication US6894052B1, “Diarylalkylpiperazines active on the lower urinary tract” (Recordati S.A. Chemical and Pharmaceutical Company, priority 1997, dated 2005)
Like-named read-outs stand apart in the source and are kept apart here.

What was measured:
[1] = test system: rhythmic bladder voiding contractions; assay: Volume-induced rhythmic bladder voiding contractions in anaesthetized rats; type: in vivo, rat; conditions: for ED50: Rattus norvegicus, read-out: ED50 (frequency); for ED10min: extrapolated dose inducing 10 min of disappearance of the contractions
Experimental: Female Sprague Dawley rats weighing 225-275 g (Crl: CDo BR, Charles River Italia) were used. The animals were housed with free access to food and water and were maintained on a forced 12 h alternating light-dark cycle at 22-24° C. for at least one week, except during the experiment. The activity on the rhythmic bladder voiding contractions was evaluated according to the method of Dray (J. Pharmacol. Methods, 13:157, 1985), with some modifications as in Guarneri (Pharmacol. Res., 27:173, 1993). Briefly, rats were anesthetized by subcutaneous injection of 1.25 g/kg (5 ml/kg) urethane, after which the urinary bladder was catheterized via the urethra using PE 50 polyethylene tubing filled with physiological saline. The catheter was tied in place with a ligature around the external urethral orifice and was connected with conventional pressure transducers (Statham P23 ID/P23 XL). […] The bladder was then filled via the recording catheter by incremental volumes of warm (37° C.) saline until reflex bladder voiding contractions occurred (usually 0.8-1.5 ml). For intravenous (i.v.) injection of bioactive compounds, PE 50 polyethylene tubing filled with physiological saline was inserted into the jugular vein.
From the cystometrogram, the number of contractions recorded 15 min before (basal values) and after treatment, as well as the mean amplitude of these contractions (mean height of the peaks in mm Hg) was evaluated.
Since most compounds produced an effect that was relatively rapid in onset and led to a complete cessation of bladder contractions, bioactivity was conveniently estimated by measuring the duration of bladder quiescence (i.e., the duration of time during which no contractions occurred). Moreover, the number of animals tested showing a reduction in the number of contractions >30% of that observed in the basal period, was recorded. […] Also computed in this manner were extrapolated doses which induced a reduction of the number of contractions of greater than 30% in 50% of treated rats (ED50, frequency) by the method of Bliss (Bliss C. I., Quart. J. Pharm. Pharmacol. 11, 192-216, 1938). After the suppressive effects of drug injection wore off, the height of the contractile peaks was compared with the height of the peaks previously recorded after the control intravenous administration of vehicle. The potency of the tested compounds (ED50 value, the extrapolated doses inducing a 30% reduction of amplitude of the contractions in 50% of treated rats) was evaluated on a quantal basis by the method of Bliss (Bliss C. I., Quart. J. Pharm. Pharmacol. 11, 192-216, 1938).

[2] = target: T1, human 5-HT1A serotonergic receptor (Homo sapiens, UniProt P08908); assay: Radioreceptor binding to recombinant human 5-HT1A receptors ([3H]8-OH-DPAT, HeLa cell membranes); conditions: recombinant human receptor in HeLa membranes, [3H]8-OH-DPAT; read-out: Ki 5-HT1A
T1 construct: expressed in transfected cells; host or cells: HeLa (human), stably transfected; cell membranes
T1 sequence (P08908 1-422): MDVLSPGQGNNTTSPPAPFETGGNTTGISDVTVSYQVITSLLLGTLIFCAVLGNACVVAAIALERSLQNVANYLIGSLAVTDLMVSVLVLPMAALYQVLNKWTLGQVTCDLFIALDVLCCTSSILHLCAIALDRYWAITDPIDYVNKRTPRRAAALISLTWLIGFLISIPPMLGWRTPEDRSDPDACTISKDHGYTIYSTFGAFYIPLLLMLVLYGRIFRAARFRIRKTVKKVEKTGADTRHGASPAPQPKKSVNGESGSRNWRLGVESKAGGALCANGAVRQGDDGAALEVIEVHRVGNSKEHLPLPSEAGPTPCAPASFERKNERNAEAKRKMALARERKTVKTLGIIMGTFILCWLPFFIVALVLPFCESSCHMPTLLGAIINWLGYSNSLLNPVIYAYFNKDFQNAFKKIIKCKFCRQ
Experimental: Genomic clone G-21 coding for the human 5-HT1A serotonergic receptor is stably transfected in a human cell line (HeLa). HeLa cells were grown as monolayers in Dulbecco's modified Eagle's medium (DMEM), supplemented with 10% fetal calf serum and gentamicin ([…]), 5% CO2 at 37° C. Cells were detached from the growth flask at 95% confluence by a cell scraper and were lysed in ice-cold 5 mM Tris and 5 mM EDTA buffer (pH 7.4). Homogenates were centrifuged at 40000×g×20 min and pellets were resuspended in a small volume of ice-cold 5 mM Tris and 5 mM EDTA buffer (pH 7.4) and immediately frozen and stored at −70° C. until use. On the day of experiment, cell membranes were resuspended in binding buffer: 50 mM Tris HCl (pH 7.4), 2.5 mM MgCl2, 10 μM pargyline (Fargin et al., Nature 335, 358-360, 1988). Membranes were incubated in a final volume of 1 ml for 30 min at 30° C. with 0.2-1 nM [^3H]8-OH-DPAT, in absence or presence of competing drugs; non-specific binding was determined in the presence of 10 μM 5-HT. The incubation was stopped by addition of ice-cold Tris-HCl buffer and rapid filtration through 0.2% polyethyleneimine-pretreated Whatman GF/B or Schleieher & Schuell GF52 filters.
(§1) The inhibition of specific binding of the radioligands by the tested drugs was analyzed to estimate the IC50 value by using the non-linear curve-fitting program Allfit (De Lean et al., Am. J. Physiol. 235, E97-E102, 1978). The IC50 value is converted to an affinity constant (Ki) by the equation of Cheng & Prusoff (Cheng, Y. C.; Prusoff, W. H. Biochem. Pharmacol. 22, 3099-3108, 1973).

[3] = target: T2, 5-HT2A serotonergic receptors (Rattus norvegicus, UniProt P14842); assay: Radioreceptor binding to native 5-HT2A serotonergic receptors ([3H]ketanserin, rat cerebral cortex membranes)
T2 construct: from tissue; host or cells: cerebral cortex of male Sprague Dawley rats, membranes
Experimental: Binding studies on native 5-HT2A serotonergic receptors (Craig A. and Kenneth J., Life Sci. 38, 117-127, 1986) were carried out in membranes of rat cerebral cortex. Male Sprague Dawley rats (200-300 g, S D Harlan/Nossan, Italy) were killed by cervical dislocation and cerebral cortexes were excised and immediately frozen in liquid nitrogen and stored at −70° C. until use. Tissues were homogenized (2×20 sec) in 50 volumes of cold 50 mM Tris-HCl buffer pH 7.4, using a Polytron homogenizer (speed 7). Homogenates were centrifuged at 49000×g for 10 min, resuspended in 50 volumes of the same buffer, incubated at 37° C. for 15 min and centrifuged and resuspended twice more. The final pellets were suspended in 100 volumes of 50 mM Tris-HCl buffer pH 7.7. Membranes were incubated in a final volume of 1 ml for 20 min at 37° C. with 0.7-1.3 nM [^3H]ketanserin (5-HT2A receptors), in absence or presence of competing drugs. Non-specific binding was determined in the presence of 2 μM ketanserin. The incubation was stopped by addition of ice-cold 50 mM Tris-HCl buffer and rapid filtration through 0.2% polyethyleneimine pretreated Whatman GF/B or Schleicher & Schuell GF52 filters. The filters are then washed with ice-cold buffer and the radioactivity retained on the filters was counted by liquid scintillation spectrometry.
as §1

[4] = target: α1 adrenergic receptors; assay: Radioreceptor binding to native α1 adrenergic receptors ([3H]prazosin, rat cerebral cortex membranes)
Experimental: Binding studies on native α1 adrenergic receptors were carried out in membranes of rat cerebral cortex. Male Sprague Dawley rats (200-300 g, Charles River, Italy) were killed by cervical dislocation and cerebral cortexes were dissected and immediately frozen and stored at −70° C. until use. Tissue was homogenized (2×20 sec) in 50 volumes of cold 50 mM Tris-HCl buffer pH 7.4, using a Polytron homogenizer (speed 7). Homogenates were centrifuged at 48000×g for 10 min, resuspended in 50 volumes of the same buffer, incubated at 37° C. for 15 min and centrifuged and resuspended twice more. The final pellets were suspended in 100 volumes of 50 mM Tris-HCl buffer pH 7.4, containing 10 μM pargyline and 0.1% ascorbic acid. Membranes were incubated in a final volume of 1 ml for 30 min at 25° C. with 0.1-0.5 nM [^3H]prazosin, in the absence or presence of competing drugs; non-specific binding was determined in the presence of 10 μM phentolamine.
The incubation was stopped by addition of ice-cold 50 mM Tris-HCl buffer and rapid filtration through 0.2% polyethyleneimine-pretreated Whatman GF/B or Schleicher & Schuell GF52 filters. The filters were then washed with ice-cold buffer and the radioactivity retained on the filters counted by liquid scintillation spectrometry.
as §1

[5] = intravenous administration, anaesthetized rats

T2 sequence (P14842 whole entry): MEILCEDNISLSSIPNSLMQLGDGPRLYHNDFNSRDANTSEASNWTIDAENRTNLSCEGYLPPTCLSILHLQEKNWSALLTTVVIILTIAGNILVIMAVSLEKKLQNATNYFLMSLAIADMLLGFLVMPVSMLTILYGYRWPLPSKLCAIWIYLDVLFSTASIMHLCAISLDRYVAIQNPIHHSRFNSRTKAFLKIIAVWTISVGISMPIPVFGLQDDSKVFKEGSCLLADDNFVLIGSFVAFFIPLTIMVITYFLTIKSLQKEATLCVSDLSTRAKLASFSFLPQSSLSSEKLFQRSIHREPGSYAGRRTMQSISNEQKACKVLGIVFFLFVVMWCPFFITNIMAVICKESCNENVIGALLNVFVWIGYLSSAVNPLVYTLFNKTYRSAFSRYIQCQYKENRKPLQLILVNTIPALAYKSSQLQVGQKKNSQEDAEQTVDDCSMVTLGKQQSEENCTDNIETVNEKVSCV

SMILES | ED50 ([1]; iv) | ED10min [1, 5] | Ki [2] | Ki [3] | Ki [4] | ED50 ([1]; intravenous administration, anaesthetized rats, extrapolated dose inducing a reduction of the number of contractions >30% in 50% of treated rats) | Ki ([3]; rat cerebral cortex membranes, [3H]ketanserin, read-out: Ki 5-HT2A)
COc1ccccc1N1CCN(CCC(C#N)(c2ccccc2)c2ccccn2)CC1.Cl.Cl (stereo not shown) [Ex. 7, 1-[3-cyano-3-phenyl-3-(2-pyridyl)propyl]-4-(2-methoxyphenyl)piperazine dihydrochloride] | 0.018 mg/kg | 78 µg/kg | 7.7 nM | 140 nM | 396 nM | – | –
COc1ccccc1N1CCN(CCC(c2ccccc2)c2ccccn2)CC1 (stereo not shown) [Ex. 9, 1-[3-phenyl-3-(2-pyridyl)propyl]-4-(2-methoxyphenyl)piperazine] | – | 77 µg/kg | 0.62 nM | – | 268 nM | 0.025 mg/kg | 1020 nM
